The subject of one assay is topoisomerase IIα. Kind of assay: Amount of expression of topoisomerase IIα in whole cell extract by western blotting. Format: cell-based, human. From the text:
Topoisomerase II inhibiting anticancer drug stabilizes a complex (cleavable complex) consisting of the DNA and topoisomerase IIα occurring in a catalytic reaction process of topoisomerase IIα to cause DNA damage. Therefore, cell-killing effect of the topoisomerase II-inhibiting anticancer drug depends on the amount of intracellular expression of topoisomerase IIα essential for formation of the cleavable complex. Then, the amount of expression of topoisomerase IIα in the cultured cancer cell under the glucose starvation and hypoxia environment that are found in the solid cancer and the effect of the proteasome inhibiting agent to the amount of expression were examined.
The culture condition of cells is same as that described in Example 1 including the M phase synchronous culture method and culture under the glucose starvation condition. Culture under hypoxia condition, that is found in the solid cancer, similar to glucose starvation was carried out using the culture medium (that prepared by adding 5% FBS to RPMI1640 culture medium) under the ordinary condition in a Gaspack 100 anaerobic system (Becton Dickinson made). Culture under the glucose starvation condition and hypoxia condition was carried out for 14 hours .
With the purpose to prepare a whole cell extract solution, cells culture under the above described condition were washed with an ice-cooled PBS twice and then, cells were removed from the culture dish by using a cell scraper (Sumitomo Bakelite made) for collection. Cells collected were precipitated by centrifugation and then, dissolved in an SDS sample buffer to collect as the extract solution from all cells. For reference, the composition of the SDS sample buffer was 10% v/v, glycerol, 5% 2-mercaptoethanol, 2% SDS (sodium lauryl sulfate), and 62.5 mM tris-hydrochloric acid (pH 6.8).
The amount of topoisomerase IIα in the extract solution from all cells was measured by the western blotting method. The extract solution from all cells containing a total protein quantity of 30 µg was put on an SDS polyacrylamide gel (4-20 Multigel: Daiichi Pure Chemicals K.K. made) and subjected to electrophoresis in an electrophoresis buffer (25 mM tris, 192 mM glycine, and 0.1% SDS) in a 40 mA constant current for 1 hour. Subsequently, blotting was carried out in 4°C blotting buffer (25 mM tris, 192 mM glycine, and 20% methanol) in a 50 V constant voltage for 12 hours to transfer a protein separated in the SDS polyacrylamide gel to a nitrocellulose membrane. This nitrocellulose membrane was soaked in a blocking buffer (0.1% Tween 20, 4% skim milk-added PBS) for 1 hour to carry out blocking. The nitrocellulose membrane blocked was soaked in a solution, that was prepared by adding anti-topoisomerase IIα antibody (Cambridge Research Biochemicals Corp. made) of the final concentration 1 µg/ml as the primary antibody to the blocking buffer solution, for 1 hour. The nitrocellulose membrane was washed with the blocking buffer three times (5 minutes once), and then, soaked in the solution, in which a 1/1000 volume of an antimouse antibody (Amersham Pharmacia Biotech made) labeled with horse radish peroxidase as a secondary antibody had been added to the blocking buffer, for 1 hour. The nitrocellulose membrane was washed with the blocking buffer three times (5 minutes once), and then, washed with the PBS, to which 0.1% Tween 20 was added, three times (5 minutes once). The nitrocellulose membrane after completion of antibody reaction and washing was treated with the ECL reagent (Amersham Pharmacia Biotech made) after a handling manual and a topoisomerase IIα-specific signal was detected on an X-OMAT™AR film (Kodakmade). For reference, steps after blotting was carried out in a room temperature. […]
The cell culture condition for both M phase-synchronized culture method and culture under the glucose starvation condition was as described in Example 1. […]
On the technique in general: In western blotting, separated proteins are transferred to a membrane and probed.

Assay [1] concerns human colon adenocarcinoma cell HT-29. Briefly: Sensitivity of cells to anticancer drug by colony formation method (M phase-synchronized cells, with or without proteasome inhibiting agent). The class given is cell-based. Particulars: for effect of each inhibiting agent on etoposide sensitivity: etoposide 10 µg/ml, MG132, MG115 2.5 µM, E64, ZLLal 25 µM, FIG. 2; for change of cell-killing effect of camptothecin: PSI, MG132 2.5 µM 13 hours, camptothecin 4 hours, FIGS. 15 and 16. Here is the method: In the glucose starvation environment found in the solid cancer, the effect of combined use of the proteasome inhibitor in a human colon adenocarcinoma cell HT-29 with the anticancer drug targeting topoisomerase II was tested.
Concerning culture media, for a culture condition in a normal state, RPMI 1640 medium (Nissui Pharmaceutical Co.-made) to which a 5% FBS (fetal bovine serum) was added and for the culture condition in the glucose starvation state symbolically found in the solid cancer, RPMI 1640 medium (Lifetech Oriental-made), lacking glucose, in which the 5% FBS was added were used, respectively. Culture was carried out using a CO2 incubator (Tabai Espec-made) under conditions of 5% CO2/95% air and humidity 100%.
In order to test sensitivity to the anticancer drug, the cell cycle synchronization culture methodwas employed. Nocodazol (Sigma made) was used to synchronize the cell cycle, cells in a logarithmic proliferation phase were treated with 40 ng/ml Nocodazol for 9 hours, and cells accumulated in cell division phase (Mpahse) were collected by gentle pipetting. M phase-synchronized cells collected through these steps were washed with PBS (phosphate buffered saline) followed by inoculation of 1×10^5 cells per well of 12 well-culture plate.
M phase-synchronized cells were cultured under the normal condition and the glucose starvation condition to conduct treatments with the proteasome inhibiting agent and the anticancer drug as follows. For cells under the glucose starvation condition, the culture medium, to which the proteasome inhibiting agent and the protease inhibiting agent not inhibiting proteasome were added as the control group, and the culture medium, to which no inhibiting agent has been added, was used. For cells under the normal condition, the culture medium, to which each inhibiting agent was not added, was used. After inoculation of cells, culture was carried out for 13 hours in each culture medium. […]
Sensitivity of cells to the anticancer drug was measured using the colony formation method. As described above, cells treated with the proteasome inhibiting agent and the anticancer drug were washed with PBS followed by soaking in trypsin (Lifetech Oriental made) solution and removed from a culture dish to suspend in an ordinary culture medium. These cells were inoculated again in 500 to 5000 cells for a 10 cm culture dish and cultured for 10 to 12 days to form a colony. The colony formed was fixed by 10% formaldehyde solution and stainedwith 0.01% crystal violet (Wako Pure Chemicals made) solution. Number of colony was counted and a Cell survival rate was calculated assuming that the number of colonies untreated with the anticancer drug is 1.
For reference, the proteasome inhibiting agent and the protease inhibiting agent not inhibiting proteasome used as described above were as follows. • (1) Proteasome inhibiting agent • . […] MG115 (carbobenzoxy-L-Leucyl-L-Leucyl-L-Norvalinal): final concentration 2.5 µM (Peptide Institute Inc. made) • . MG132 (carbobenzoxy-L-Leucyl-L-Leucyl-Leucinal) : final concentration 2.5 µM (Peptide Institute Inc. made) • . Lactacystin, final concentration 10 µM (Kindly supplied from The Kitasato Institute made) • (2) Protease inhibiting agent not inhibiting proteasome • . E64, final concentration 25 µM (Peptide Institute Inc. made) • . ZLLal (carbobenzoxy-L-Leucyl-L-Leucinal): final concentration 25 µM (Peptide Institute Inc. made)
The cell culture condition for both M phase-synchronized culture method and culture under the glucose starvation condition was as described in Example 1. M phase-synchronized cells were cultured in the culture medium, to which lactacystin of the final concentration 10 µM was added, or the culture medium, to which this was not added, as the proteasome inhibiting agent under the ordinary condition and the glucose starvation condition, respectively, for 13 hours. […]

Where [2] appears, read: glucose starvation condition 14 hours, PSI, MG115, MG132 5 µM, lactacystin 10 µM, E64, ZLLal 50 µM, FIG. 5(a)-(c).
Where [3] appears, read: glucose starvation condition, final concentration of 2.5 µM, not presented as data.

SMILES strings stand for the structures. Where a SMILES comes first, the peptide text is derived from it. [ ]: non-standard residue; d: D form. The star is where a group is joined. Nva = CCC[C@H](N)C(=O)O; Cbz = O=C(OCc1ccccc1)*; OtBu = CC(C)(C)O*

Take `CC(C)C[C@H](NC(=O)[C@H]1O[C@@H]1C(=O)O)C(=O)NCCCCNC(=N)N` [E64]: the “expressed amount of topoisomerase IIα” value in the assay with topoisomerase IIα (setting [2]) is recorded as “the expressed amount of topoisomerase IIα very dropped”. The “effect of each inhibiting agent on etoposide sensitivity” value (“effect of each inhibiting agent” for short) in assay [1] (glucose starvation condition) was “seldom change sensitivity to etoposide”.
With `CCC[C@@H](C=O)NC(=O)[C@H](CC(C)C)NC(=O)[C@H](CC(C)C)NC(=O)OCc1ccccc1` [MG115, carbobenzoxy-L-Leucyl-L-Leucyl-L-Norvalinal] (Cbz-Leu-Leu-[Nva]-aldehyde), the “expressed amount of topoisomerase IIα” value with topoisomerase IIα (setting [2]) is “the expressed amount of topoisomerase IIα does not drop”; in the assay with topoisomerase IIα (setting [3]), “inhibited similarly decrease in expression of topoisomerase IIα”. Besides, the “effect of each inhibiting agent” value in assay [1] (glucose starvation condition) is on record as “enhance sensitivity of cells to etoposide”.
Regarding `CC(C)C[C@@H](C=O)NC(=O)[C@H](CC(C)C)NC(=O)[C@H](CC(C)C)NC(=O)OCc1ccccc1` [MG132, carbobenzoxy-L-Leucyl-L-Leucyl-Leucinal] (Cbz-Leu-Leu-Leu-aldehyde), in the assay on topoisomerase IIα (setting [2]), the “expressed amount of topoisomerase IIα” value was “the expressed amount of topoisomerase IIα does not drop”. Also, the “expressed amount of topoisomerase IIα” value in the assay with topoisomerase IIα (setting [3]) is reported as “inhibited similarly decrease in expression of topoisomerase IIα”. Moreover, in assay [1] (glucose starvation condition), the “change of cell-killing effect of camptothecin” value is listed as “also enhance the effect of camptothecin” and the “effect of each inhibiting agent” value was “enhance sensitivity of cells to etoposide”.
Take `CC[C@H](C)[C@H](NC(=O)OCc1ccccc1)C(=O)N[C@@H](CCC(=O)OC(C)(C)C)C(=O)N[C@@H](C)C(=O)N[C@H](C=O)CC(C)C` [PSI, carbobenzoxy-L-Isoleucyl-γ-t-Butyl-L-Glutamyl-L-Alany 1-L-Leucinal] (Cbz-IE(OtBu)AL-aldehyde): the “expressed amount of topoisomerase IIα” value is listed as “the expressed amount of topoisomerase IIα does not drop” in the assay with topoisomerase IIα (setting [2]) and “inhibited similarly decrease in expression of topoisomerase IIα” in the assay on topoisomerase IIα (setting [3]). Moreover, the “sensitivity to etoposide of cancer cells, effect of inhibiting agent” value in assay [1] (glucose starvation condition, PSI 2.5 µM, 13 hours, then etoposide 1 hour, FIG. 1) is “cells show sensitivity to etoposide even in the glucose starvation condition”. In assay [1] (glucose starvation condition), the “change of cell-killing effect of camptothecin” value is reported as “also enhance the effect of camptothecin”.
As to `CC(C)C[C@@H](C=O)NC(=O)[C@H](CC(C)C)NC(=O)OCc1ccccc1` [ZLLal, carbobenzoxy-L-Leucyl-L-Leucinal], in the assay on topoisomerase IIα (setting [2]), the “expressed amount of topoisomerase IIα” value is reported as “the expressed amount of topoisomerase IIα very dropped”. In addition, in assay [1] (glucose starvation condition), the “effect of each inhibiting agent” value is recorded as “seldom change sensitivity to etoposide”.
Consider `N.N.[Cl][Pt][Cl]` [cisplatin], for which the “sensitivity of cancer cells to cisplatin” value in assay [1] (under the stress environment (glucose starvation), cisplatin 4 hours, FIG. 18) was “high sensitivity”.
`CC(=O)NCCSC(=O)[C@]1([C@@H](O)C(C)C)NC(=O)[C@H](C)[C@@H]1O` [decarboxy lactacystin]: the “amount of expression of topoisomerase IIα” value in the assay with topoisomerase IIα (glucose starvation condition 13 hours, decarboxy lactacystin 0.5, 1, 2.5, and 5 µM, FIG. 19 bottom) is given as “inhibits lowering of expression of topoisomerase IIα by glucose starvation”. Further, the “change of cell-killing effect of etoposide” value in assay [1] (decarboxy lactacystin 5 µM 13 hours, etoposide 4 hours, ordinary and glucose starvation condition, FIG. 19 top) is listed as “enhances the cell-killing effect of etoposide”. Besides, in assay [1] (ordinary condition, decarboxy lactacystin 5 µM 13 hours, SN38 4 hours, FIG. 20), the “change of cell-killing effect of SN38” value is on record as “enhances the cell-killing effect of SN38”.

These data come from patent EP1153612A1, “ANTICANCER AGENT POTENTIATORS” (Tsuruo, Takashi, priority 1999, dated 2000).
